These results are taken from patent publication US9078831B2, “Cosmetic treatment method using a compound that can be condensed in situ and a UV-radiation-filtering agent” (L'Oreal, priority 2009, dated 2015).

Assay [1] in a line: Persistence towards water (water resistance, SPF before and after baths) in vivo. Further details: species or system volunteers. Conditions: APTES layer under Example 2, in words. The protocol:
(§1) The screening effectiveness and the persistence towards water of a solution of UV screening agents, applied to a condensed deposited layer of APTES, in comparison with a solution deposited on bare skin, are evaluated and compared at different concentrations. The UV screening agents tested are Phenylbenzimidazole Sulfonic Acid and Terephthalylidene Dicamphor Sulfonic Acid.
(§2) The studies were carried out on 5 volunteers of phototype I, II or III. The studies targeted exclusively at determining the screening effectiveness took place over 2 consecutive days, when 3 days were necessary for measurements of persistence towards water. On the first day, the screening formulation is applied at 2 mg per cm^2 on bare skin or on a condensed deposited layer of APTES. The volunteers are subsequently exposed to ultraviolet radiation. Erythema is read and the SPF is defined 24 h later. In the case of a test of persistence towards water, the same solutions or pairs of solutions are applied on the second day. The volunteers are immersed in 2 consecutive baths of water, each of 20 minutes, Wore being again exposed to UV radiation. The post-bath SPF is determined during the third test day. The water resistance (WR) is defined as: […]
The water resistance of the 12% solution of UV screening agents was also evaluated in vivo, with and without APTES. […]

Assay [2] is described as follows: Screening effectiveness (SPF) in vivo. Further details: species or system volunteers. The following applies: spread over a deposited layer of APTES versus bare skin; 2 mg per cm^2; erythema read 24 h later. Here is the method:
as §1
as §2, with “day.” for “day. The water resistance (WR) is defined as:”
The SPF values of the 8% and 12% solutions of UV screening agents are measured, which measurements are taken after spreading over bare skin or over deposited layers more or less concentrated in APTES. […]

Turning to `CCO[Si](CCCN)(OCC)OCC` [APTES, γ-aminopropyltriethoxysilane], in assay [1], the “resistance to water of the UV screening agents” value is “significantly increase the resistance to water”. Moreover, the SPF in vivo result in assay [2] is listed as “SPF increases in proportion as the amount of APTES spread beforehand over the skin increases”.
